Source: article PMC7878837, “Generation of Human-Induced Pluripotent Stem Cell-Derived Functional Enterocyte-Like Cells for Pharmacokinetic Studies” (Stem Cell Reports, 2021)
Like-named read-outs stand apart in the source and are kept apart here.

Legend:
[1] = Permeability test (Papp) across hiPSC-derived enterocyte-like cell monolayer; format: in vitro ADME; conditions: human, M3-2 medium, 37°C 2 h, n = 4
Procedure: The unlabeled compounds were analyzed by LC-MS/MS. […]
Permeability measurements
5 was determined as follows: the culture medium for hiPS-derived enterocyte-like cells was replaced with […]
started by replacing the FBS-containing HBSS buffer with substrate +/- inhibitor and incubated at 37°C for 2 h. The unlabeled compounds were analyzed by LC-MS/MS. The LC-MS/MS system consisted of a Waters ACQUITY UPLC (Waters Corporation, Milford, MA, USA) and a Waters Quattro Ultima mass spectrometer (Waters Corporation). The multiple reaction monitoring modes were used to monitor ions.
The detailed conditions for the analyses of the compounds are shown in Supplemental Table S1. The apparent membrane permeability coefficient (Papp) was calculated as follows. Papp ൌ ௗொௗ௧ ൈ ଵ஺஼బ Where dQ/dt is the amount of the compound permeated per unit of time, A is the surface area of insert membrane (0.33 cm2), and C0 is the initial compound concentration in the donor chamber. Differentiated cells showing TEER >30 Ω・cm2 were used. […]
100ൈቀ1െexp൫െα ൈP௔௣௣ ൯ቁ. Where α is the scaling factor. The fitting curve was calculated by nonlinear regression using Phoenix WinNonlin (Ver. 8.1, Certara, L.P.).

[2] = fraction of oral dose absorbed in humans; ref Amidon et al., 1988; Sjöberg et al., 2013; Skolnik et al., 2010; Sugano et al., 2002; Takenaka et al., 2016; Tavelin et al., 2003; Xiao et al., 2019; cited from earlier work
P-gp [3] = system: T1, P-gp; experiment: Rhodamine 123 permeability assay by fluorescence detection; format: in vitro ADME, human; conditions: human, not told, day 25, M3-2 with VD3 for the last 48 h (condition #8), read-out: rhodamine 123 flux ratio ([B-to-A transport]/[A-to-B transport])
T1 construct: transport activities of efflux transporters, P-gp and BCRP, in the ChiPS18-derived enterocyte-like cells; endogenous in cells; host or cells: ChiPS18 human iPSC-derived enterocyte-like cells on CVM inserts
From the text: (§1) Flux ratio = Papp, basolateral to apical/Papp, apical to basolateral

P-gp [4] = target: T2, P-gp (Homo sapiens, UniProt P08183); experiment: as above; format: in vitro ADME; set-up: transport activities of efflux transporters, P-gp and BCRP, in the ChiPS18-derived enterocyte-like cells; endogenous in cells; host or cells: ChiPS18 human iPSC-derived enterocyte-like cells on CVM inserts; conditions: 10 μM, day 25, absence of Dex (condition #6, 7) or without Dex and DMSO (condition #5)
T2 sequence (P08183 whole entry): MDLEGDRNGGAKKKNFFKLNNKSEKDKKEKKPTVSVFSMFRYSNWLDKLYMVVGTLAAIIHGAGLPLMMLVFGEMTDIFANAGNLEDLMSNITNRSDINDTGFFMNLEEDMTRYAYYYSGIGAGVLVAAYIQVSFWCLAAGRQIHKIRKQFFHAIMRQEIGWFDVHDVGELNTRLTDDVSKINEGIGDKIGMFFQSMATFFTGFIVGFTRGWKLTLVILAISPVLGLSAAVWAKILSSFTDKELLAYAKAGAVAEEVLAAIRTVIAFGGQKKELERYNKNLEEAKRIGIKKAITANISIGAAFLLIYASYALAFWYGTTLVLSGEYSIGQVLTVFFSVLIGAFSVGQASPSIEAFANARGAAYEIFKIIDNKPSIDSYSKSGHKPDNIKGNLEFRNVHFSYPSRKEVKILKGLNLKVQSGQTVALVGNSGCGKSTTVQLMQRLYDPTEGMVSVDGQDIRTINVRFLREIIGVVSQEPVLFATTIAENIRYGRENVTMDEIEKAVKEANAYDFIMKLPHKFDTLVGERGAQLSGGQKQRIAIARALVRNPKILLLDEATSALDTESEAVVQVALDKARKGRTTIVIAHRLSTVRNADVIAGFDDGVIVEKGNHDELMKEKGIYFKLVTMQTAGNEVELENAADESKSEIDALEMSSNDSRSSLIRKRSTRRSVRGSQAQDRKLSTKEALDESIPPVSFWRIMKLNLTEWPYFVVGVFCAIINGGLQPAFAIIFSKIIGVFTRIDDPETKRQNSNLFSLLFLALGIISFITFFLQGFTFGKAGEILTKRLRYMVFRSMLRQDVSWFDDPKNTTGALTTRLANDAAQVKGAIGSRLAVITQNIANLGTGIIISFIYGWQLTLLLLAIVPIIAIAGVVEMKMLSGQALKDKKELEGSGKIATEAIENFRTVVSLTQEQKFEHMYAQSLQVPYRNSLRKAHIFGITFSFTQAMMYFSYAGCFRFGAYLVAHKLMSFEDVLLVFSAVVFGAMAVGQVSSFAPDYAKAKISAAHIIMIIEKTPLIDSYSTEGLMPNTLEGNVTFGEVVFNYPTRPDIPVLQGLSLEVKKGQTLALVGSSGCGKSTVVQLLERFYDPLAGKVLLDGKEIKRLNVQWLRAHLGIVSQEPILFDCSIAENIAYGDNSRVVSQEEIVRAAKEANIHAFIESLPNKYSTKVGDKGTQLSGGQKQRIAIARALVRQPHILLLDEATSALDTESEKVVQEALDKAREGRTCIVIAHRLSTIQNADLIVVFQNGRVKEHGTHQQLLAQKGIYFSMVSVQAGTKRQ
From the text: as §1

Caco-2 cells = system: Caco-2 cells; set-up: method as in Artursson, 1990; conditions: ref Artursson, 1990; cited from earlier work
P-gp [5] = target: T2, P-gp; conditions: digoxin 1.27 nM, absence of inhibitor
CYP3A4 = conditions: in vitro; ref Andrew Williams et al., 2002; cited from earlier work
[6] = system: RPChiPS771-derived enterocyte-like cells; experiment: Real-time PCR of marker genes in hiPSC-derived enterocyte-like cells with or without VD3; format: cell-based, human
From the text: We then used M3-2 for maturation and evaluated the time-dependent expression of marker genes (Figure 4D). […] The expression levels of UDP glucuronosyltransferase 1-1 (UGT1A1) and various isoforms of P450 metabolizing enzymes (CYP2B6, CYP3A4, and CYP3A7) increased in the presence of VD3 compared with the controls without VD3. The expression levels of uptake transporter, SLC15A1, and efflux transporters, ABCB1 and ABCG2, were not affected by VD3.
Cells were fixed in 4% paraformaldehyde (Nacalai Tesque) in PBS, permeabilized with 0.1% Triton X-100 (Nacalai Tesque). The following antibodies were used: anti-CDX2 (1:100, BioGenex, San Ramon, CA, MU392A-UC), anti-VILLIN (1:100, BD Transduction Laboratories, San Diego, 610359), Alexa 568-conjugated, and Alexa 488-conjugated antibodies (1:1000, ThermoFisher).
RNA was extracted from iPS cells using the RNeasy micro-kit or QIAzol (Qiagen, Hilden, Germany) and then treated with DNase (Qiagen). For reverse transcription reactions, 2.5 µg RNA was reverse-transcribed using PrimeScript™ RT Master Mix (Takara Bio). For real-time PCR analysis, the mRNA expression was quantified with either TaqMan Primers and Probe or using SYBR Green on a StepOne Plus (Applied Biosystems, Foster City, CA, USA). β-ACTIN and GAPDH were used as internal controls. Target mRNA levels were expressed as fold-change against human adult small intestine (ASI; ASI=1). Primer details are listed in Supplemental Table S2.
Membrane integrities of human iPSCs derived intestine cells and Caco-2 cells cultured on CVM were measured after the medium change, using a Millicell ERS-2 (Epithelial Volt-Ohm Meter, Millipore).
Transcellular transport assays and measurement of CYP3A metabolite
In Figure 2 and Figure S1, for assessing the transporter activity of P-gp, time-dependent directional (B-to-

[7] = D30 of differentiation, read-out: RPChiPS771 d30 Papp Mean ± SD
[8] = day 23 of differentiation, read-out: RPChiPS771 d23 Papp Mean ± SD

Structure (SMILES)	Papp at 2 h [1, 7]	Papp at 2 h [1, 8]	Human Fa [2]	also measured
Cc1cc(=O)n(-c2ccccc2)n1C [antipyrine]	41.9 ± 2.2 ×10⁻⁶ cm/s	48.4 ± 1.7 ×10⁻⁶ cm/s	97%	
COC(=O)c1ccccc1-c1c2ccc(=N)cc-2oc2cc(N)ccc12 [rhodamine 123]				efflux ratio at 10 μM (P-gp [3]): < 2; rhodamine 123 flux ratio ([B-to-A transport]/[A-to-B transport]) (P-gp [4]): low
CC(C)NCC(O)COc1cccc2ccccc12 (centres unmarked) [propranolol]	29.3 ± 2.5 ×10⁻⁶ cm/s	26 ± 2.7 ×10⁻⁶ cm/s		passive permeability (Caco-2 cells): 4.19e-05 cm/s
C[C@H]1O[C@@H](O[C@H]2[C@@H](O)C[C@H](O[C@H]3[C@@H](O)C[C@H](O[C@H]4CC[C@@]5(C)[C@H](CC[C@@H]6[C@@H]5C[C@@H](O)[C@]5(C)[C@@H](C7=CC(=O)OC7)CC[C@]65O)C4)O[C@@H]3C)O[C@@H]2C)C[C@H](O)[C@@H]1O [digoxin]	5.18 ± 0.7 ×10⁻⁶ cm/s	6.15 ± 0.94 ×10⁻⁶ cm/s		directional transport (B-to-A vs A-to-B) (P-gp [5]): Basal-to-apical (B-to-A) transport exceeded apical-to-basal (A-to-B) transport
CC(C)(C)NCC(O)COc1cccc2c1CC(O)C(O)C2 (centres unmarked) [nadolol]	8.96 ± 9.29 ×10⁻⁶ cm/s	2.83 ± 1.5 ×10⁻⁶ cm/s	33%	
NC(N)=Nc1nc(CSCCC(N)=NS(N)(=O)=O)cs1 [famotidine]	7.42 ± 3.36 ×10⁻⁶ cm/s	5.05 ± 1.76 ×10⁻⁶ cm/s	38%	
CNC(=C[N+](=O)[O-])NCCSCc1ccc(CN(C)C)o1 [ranitidine]	8.3 ± 6.06 ×10⁻⁶ cm/s	3.94 ± 0.7 ×10⁻⁶ cm/s	50%	
CCN1CCCC1CNC(=O)c1cc(S(N)(=O)=O)ccc1OC (centres unmarked) [sulpiride]	8.39 ± 4.96 ×10⁻⁶ cm/s	3.15 ± 1.18 ×10⁻⁶ cm/s		
C[C@]12CC[C@H]3[C@@H](CCC4=CC(=O)CC[C@@]43C)[C@@H]1CC[C@@H]2O [testosterone]			100%	
NS(=O)(=O)c1cc2c(cc1Cl)NCNS2(=O)=O [hydrochlorothiazide]	9.5 ± 4.92 ×10⁻⁶ cm/s	2.1 ± 1.12 ×10⁻⁶ cm/s		
COCCc1ccc(OCC(O)CNC(C)C)cc1 (centres unmarked) [metoprolol]	25.1 ± 4.8 ×10⁻⁶ cm/s	22.6 ± 1.3 ×10⁻⁶ cm/s		
Cc1ncc2n1-c1ccc(Cl)cc1C(c1ccccc1F)=NC2 [midazolam]				formation of 1′-OH midazolam by CYP3A4 compared to CYP3A7 (CYP3A4): > 600 fold
O=C(O)c1cc(/N=N/c2ccc(S(=O)(=O)Nc3ccccn3)cc2)ccc1O [sulfasalazine]	2.65 ± 1.01 ×10⁻⁶ cm/s	1.02 ± 0.4 ×10⁻⁶ cm/s	13%	
Nc1nc2c(ncn2COCCO)c(=O)[nH]1 [acyclovir]	10 ± 6.34 ×10⁻⁶ cm/s	3.62 ± 0.73 ×10⁻⁶ cm/s		
C=C1/C(=C\C=C2/CCC[C@]3(C)[C@@H]([C@H](C)CCCC(C)(C)O)CC[C@@H]23)C[C@@H](O)C[C@@H]1O [VD3, 1α,25-dihydroxyvitamin D3]				expression level of ALPI ([6]; presence of VD3, M3-2): upregulated; expression levels of UGT1A1, CYP2B6, CYP3A4 and CYP3A7 ([6]; presence of VD3 compared with controls without VD3, M3-2): increased; expression levels of SLC15A1, ABCB1 and ABCG2 ([6]; presence of VD3 vs without, M3-2): not affected
O=C(O)Cc1ccccc1Nc1c(Cl)cccc1Cl [diclofenac]	12 ± 1.2 ×10⁻⁶ cm/s	17.4 ± 0.6 ×10⁻⁶ cm/s		
